This assay deals with c-Met (Homo sapiens, UniProt P08581). Nature of the assay: Ki determination for the inhibition of c-Met kinase activity (standard coupled enzyme system). Format: biochemical. Particulars: coupled enzyme system, 200 μM ATP, 80 nM c-Met, 30° C., read-out: c-Met Ki. The procedure, abridged: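 The kinase (80 nM) turned over polyGluTyr (10 μM) with ATP (200 μM, added to start), coupled to NADH oxidation via pyruvate kinase/lactate dehydrogenase at pH 7.5 HEPES, 1.5% DMSO.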

Among the data in patent US7998987B2, “Inhibitors of c-Met and uses thereof” (Vertex Pharmaceuticals Incorporated, priority 2005, dated 2011) are Ki values, retold here.

Molecules are shown by their SMILES. Read-outs that look alike come from different tables or passages of the source.

c-Met, sequence (P08581 25-1390): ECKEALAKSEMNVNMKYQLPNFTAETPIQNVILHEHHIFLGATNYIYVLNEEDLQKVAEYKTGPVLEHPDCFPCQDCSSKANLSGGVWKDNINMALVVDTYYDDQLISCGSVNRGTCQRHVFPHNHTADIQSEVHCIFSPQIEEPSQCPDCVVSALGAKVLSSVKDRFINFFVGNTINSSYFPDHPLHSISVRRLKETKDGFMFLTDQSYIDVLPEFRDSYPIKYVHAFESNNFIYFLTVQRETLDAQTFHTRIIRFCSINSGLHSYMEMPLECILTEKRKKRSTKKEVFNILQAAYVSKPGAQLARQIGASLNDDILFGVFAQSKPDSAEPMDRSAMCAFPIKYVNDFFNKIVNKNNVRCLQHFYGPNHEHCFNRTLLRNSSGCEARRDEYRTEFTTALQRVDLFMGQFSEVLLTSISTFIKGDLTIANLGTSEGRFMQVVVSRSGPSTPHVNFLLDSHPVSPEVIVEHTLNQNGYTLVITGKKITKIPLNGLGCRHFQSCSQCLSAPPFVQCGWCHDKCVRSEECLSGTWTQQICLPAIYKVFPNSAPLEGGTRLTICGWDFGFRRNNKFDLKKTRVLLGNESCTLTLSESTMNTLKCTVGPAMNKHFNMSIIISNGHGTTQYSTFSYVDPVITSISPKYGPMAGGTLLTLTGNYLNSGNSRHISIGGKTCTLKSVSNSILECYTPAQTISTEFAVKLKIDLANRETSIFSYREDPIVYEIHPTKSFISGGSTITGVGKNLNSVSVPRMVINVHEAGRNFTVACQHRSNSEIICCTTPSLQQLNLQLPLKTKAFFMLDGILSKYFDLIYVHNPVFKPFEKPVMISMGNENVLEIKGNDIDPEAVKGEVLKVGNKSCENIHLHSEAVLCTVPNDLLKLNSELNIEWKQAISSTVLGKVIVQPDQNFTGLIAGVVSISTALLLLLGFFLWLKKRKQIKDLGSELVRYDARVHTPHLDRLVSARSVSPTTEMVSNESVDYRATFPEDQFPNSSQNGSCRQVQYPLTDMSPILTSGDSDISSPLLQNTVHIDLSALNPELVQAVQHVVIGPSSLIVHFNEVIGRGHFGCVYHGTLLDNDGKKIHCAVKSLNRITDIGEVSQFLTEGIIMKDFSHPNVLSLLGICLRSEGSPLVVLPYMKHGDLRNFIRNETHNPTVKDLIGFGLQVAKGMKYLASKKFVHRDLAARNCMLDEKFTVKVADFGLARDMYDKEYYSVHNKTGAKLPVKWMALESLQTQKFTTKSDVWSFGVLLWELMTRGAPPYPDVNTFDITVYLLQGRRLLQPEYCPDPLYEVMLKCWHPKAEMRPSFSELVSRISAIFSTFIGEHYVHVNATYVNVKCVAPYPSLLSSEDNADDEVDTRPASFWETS

For `Clc1cccc(Nc2ccc3nnc(CNc4cccc5[nH]ccc45)n3n2)c1` [Compound 464], the inhibitory constant (Ki) is over 2 µM.
For `COc1ccc(Cc2nnc3ccc(Nc4cccc(CCO)c4)nn23)cc1` [Compound 266], the Ki (10 μM polyGluTyr) lay within 0.1 to 2 µM.
On to `CCc1cccc(Nc2ccc3nnc(Cc4ccc(O)c(F)c4)n3n2)c1` [Compound 289], for which the Ki lay in the range of 0.1 to 2 µM.
